The text below walks through data of patent US9932340B2, “Substituted indoles” (AbbVie Inc., priority 2014, dated 2018).

Structures are written as SMILES.

Chain of SUV420H1 enzyme (Q4FZB7 whole entry): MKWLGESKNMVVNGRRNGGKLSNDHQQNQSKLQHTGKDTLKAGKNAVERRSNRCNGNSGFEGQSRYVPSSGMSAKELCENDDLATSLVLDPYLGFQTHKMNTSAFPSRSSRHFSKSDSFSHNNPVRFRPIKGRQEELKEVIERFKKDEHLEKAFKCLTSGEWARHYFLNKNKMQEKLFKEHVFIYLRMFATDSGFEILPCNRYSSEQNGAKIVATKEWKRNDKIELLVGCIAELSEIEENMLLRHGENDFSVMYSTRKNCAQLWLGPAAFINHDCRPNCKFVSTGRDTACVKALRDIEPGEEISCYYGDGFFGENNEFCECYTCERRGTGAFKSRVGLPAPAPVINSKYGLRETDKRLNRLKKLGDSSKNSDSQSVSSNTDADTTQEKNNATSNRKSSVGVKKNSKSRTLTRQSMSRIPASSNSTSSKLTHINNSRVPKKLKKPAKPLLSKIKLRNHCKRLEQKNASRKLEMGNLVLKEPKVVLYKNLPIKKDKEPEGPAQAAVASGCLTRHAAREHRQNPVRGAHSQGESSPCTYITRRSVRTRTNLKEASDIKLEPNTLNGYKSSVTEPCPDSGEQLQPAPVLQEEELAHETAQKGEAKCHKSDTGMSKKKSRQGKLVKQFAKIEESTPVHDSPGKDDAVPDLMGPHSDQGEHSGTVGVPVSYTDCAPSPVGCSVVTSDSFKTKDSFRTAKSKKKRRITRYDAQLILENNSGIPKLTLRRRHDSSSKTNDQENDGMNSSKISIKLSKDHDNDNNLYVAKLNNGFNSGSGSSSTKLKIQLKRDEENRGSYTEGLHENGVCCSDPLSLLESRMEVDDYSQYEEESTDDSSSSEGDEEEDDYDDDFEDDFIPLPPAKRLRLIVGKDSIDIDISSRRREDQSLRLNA

This assay addresses SUV420H1 enzyme (Homo sapiens, UniProt Q4FZB7). As to the kind of experiment: TR-FRET SAH SUV420H1 enzyme inhibition assay. The settings on record: Histone Peptide H4(8-30)me1 and SAM, overnight at room temp, TR-FRET detection of SAH, read-out: TR-FRET SAH_SUV420H1 IC50. The assay is classed as biochemical. The essentials:
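SUV420H1 (90 nM) preincubated 30 min with compound (3-fold dilutions, 50 to 0.00075 μM), then H4(8-30)me1 peptide 5 nM and SAM 4 nM added, overnight at room temp. SAH product detected by TR-FRET with Tb anti-SAH antibody and Oregon Green-SAH in RIPA buffer, 4 h; IC50 from Hill fit, asymptotes fixed 0-100%.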
As for `Nc1ncnc2c1ncn2Cc1cc(Cl)cc2cc(CNC(=O)c3cnc4ccoc4c3)[nH]c12` [Example 340, N-({7-[(6-amino-9H-purin-9-yl)methyl]-5-chloro-1H-indol-2-yl}methyl)furo[3,2-b]pyridine-6-carboxamide], the IC50 turned out to be 807 nM.
Turning to `N#Cc1c[nH]c2ccc(C(=O)NCc3cc4cc(Cl)cc(Cn5cnc6c(N)ncnc65)c4[nH]3)cc12` [Example 369, N-({7-[(6-amino-9H-purin-9-yl)methyl]-5-chloro-1H-indol-2-yl}methyl)-3-cyano-1H-indole-5-carboxamide], the half-inhibitory concentration (IC50) was above 50000 nM.
Turning to `Nc1ncnc2c1ncn2Cc1cc(Cl)cc2cc(CNC(=O)CN3CCCC3)[nH]c12` [Example 120, N-({7-[(6-amino-9H-purin-9-yl)methyl]-5-chloro-1H-indol-2-yl}methyl)-2-(pyrrolidin-1-yl)acetamide], the IC50 turned out to be 1490 nM.
With `NCc1cc2c(-c3ccc(F)cc3)ccc(Cn3cnc4c(N)ncnc43)c2[nH]1` [Example 73, 9-{[2-(aminomethyl)-4-(4-fluorophenyl)-1H-indol-7-yl]methyl}-9H-purin-6-amine] the figure was 722 nM.
`Nc1ncnc2c1ncn2Cc1cc(Cl)cc2cc(CNCc3cccc(Cl)c3F)[nH]c12` [Example 218, 9-[(5-chloro-2-{[(3-chloro-2-fluorobenzyl)amino]methyl}-1H-indol-7-yl)methyl]-9H-purin-6-amine]: the half-maximal inhibitory concentration (IC50) came out at 2330 nM.
Consider `Cc1ccsc1C(=O)NCc1cc2cc(Cl)cc(Cn3cnc4c(N)ncnc43)c2[nH]1` [Example 157, N-({7-[(6-amino-9H-purin-9-yl)methyl]-5-chloro-1H-indol-2-yl}methyl)-3-methylthiophene-2-carboxamide], for which the half-inhibitory concentration (IC50) was determined as 2060 nM.
In the case of `Nc1nc(C2CC2)nc2c1ncn2Cc1cccc2cc[nH]c12` [Example 6, 2-cyclopropyl-9-(1H-indol-7-ylmethyl)-9H-purin-6-amine], the IC50 was determined as 1460 nM.
Next, `CC(=O)N1CC=C(c2cc(Cn3cnc4c(N)ncnc43)c3[nH]c(CN)cc3c2)CC1` [Example 15, 1-[4-{2-(aminomethyl)-7-[(6-amino-9H-purin-9-yl)methyl]-1H-indol-5-yl}-3,6-dihydropyridin-1(2H)-yl]ethanone]: 154 nM.
For `Nc1ncnc2c1ncn2Cc1cc(Cl)cc2cc(CNC(=O)c3cc4[nH]nnc4cc3F)[nH]c12` [Example 334, N-({7-[(6-amino-9H-purin-9-yl)methyl]-5-chloro-1H-indol-2-yl}methyl)-5-fluoro-1H-benzotriazole-6-carboxamide], the IC50 was 2040 nM.
Turning to `COc1ccccc1CNCc1cc2cc(Cl)cc(Cn3cnc4c(N)ncnc43)c2[nH]1` [Example 250, 9-[(5-chloro-2-{[(2-methoxybenzyl)amino]methyl}-1H-indol-7-yl)methyl]-9H-purin-6-amine], the IC50 worked out at 4440 nM.
With `Cc1ccccc1CC(=O)NCc1cc2cc(Cl)cc(Cn3cnc4c(N)ncnc43)c2[nH]1` [Example 294, N-({7-[(6-amino-9H-purin-9-yl)methyl]-5-chloro-1H-indol-2-yl}methyl)-2-(2-methylphenyl)acetamide] the figure was above 50000 nM.
With `Cc1nc2cc(C(=O)NCc3cc4cc(Cl)cc(Cn5cnc6c(N)ncnc65)c4[nH]3)ccc2n1C` [Example 367, N-({7-[(6-amino-9H-purin-9-yl)methyl]-5-chloro-1H-indol-2-yl}methyl)-1,2-dimethyl-1H-benzimidazole-5-carboxamide] the figure was 591 nM; with `Nc1ncnc2c1ncn2Cc1cc(Cl)cc2cc(CNC(=O)CCN3CCCC3)[nH]c12` [Example 122, N-({7-[(6-amino-9H-purin-9-yl)methyl]-5-chloro-1H-indol-2-yl}methyl)-3-(pyrrolidin-1-yl)propanamide], 4770 nM.
With `CC(=O)N1CC=C(c2cc(Cn3cnc4c(N)ncnc43)c3[nH]c(CNC(=O)c4ccc(C#N)cc4F)cc3c2)CC1` [Example 288, N-({5-(1-acetyl-1,2,3,6-tetrahydropyridin-4-yl)-7-[(6-amino-9H-purin-9-yl)methyl]-1H-indol-2-yl}methyl)-4-cyano-2-fluorobenzamide] the figure was 43.1 nM; with `Nc1ncnc2c1ncn2Cc1cc(Cl)cc2cc(CNC(=O)c3ccc4ncsc4c3)[nH]c12` [Example 335, N-({7-[(6-amino-9H-purin-9-yl)methyl]-5-chloro-1H-indol-2-yl}methyl)-1,3-benzothiazole-6-carboxamide], 401 nM.
For `N#Cc1ccc(C(=O)NCc2cc3cc(Cl)cc(Cn4cnc5c(N)ncnc54)c3[nH]2)c(Cl)c1` [Example 276, N-({7-[(6-amino-9H-purin-9-yl)methyl]-5-chloro-1H-indol-2-yl}methyl)-2-chloro-4-cyanobenzamide], the half-maximal inhibitory concentration (IC50) was found to be 39 nM.
`Cc1cc(C#N)ccc1C(=O)NCc1cc2cc(C3=CCOCC3)cc(Cn3cnc4c(N)ncnc43)c2[nH]1` [Example 304, N-({7-[(6-amino-9H-purin-9-yl)methyl]-5-(3,6-dihydro-2H-pyran-4-yl)-1H-indol-2-yl}methyl)-4-cyano-2-methylbenzamide]: the IC50 was determined as 49.1 nM.
In the case of `Cc1cc(C(=O)NCc2cc3cc(C4=CCC(F)(F)CC4)cc(Cn4cnc5c(N)ncnc54)c3[nH]2)c(C)nn1` [Example 236, N-({7-[(6-amino-9H-purin-9-yl)methyl]-5-(4,4-difluorocyclohex-1-en-1-yl)-1H-indol-2-yl}methyl)-3,6-dimethylpyridazine-4-carboxamide], the concentration for half-maximal inhibition (IC50) worked out at 33.8 nM.
For `Nc1ncnc2c1ncn2Cc1cc(Cl)cc2cc(CNCc3cc(F)ccc3Cl)[nH]c12` [Example 217, 9-[(5-chloro-2-{[(2-chloro-5-fluorobenzyl)amino]methyl}-1H-indol-7-yl)methyl]-9H-purin-6-amine], the IC50 is 2430 nM.
Next, `Cc1ccc(CC(=O)NCc2cc3cc(Cl)cc(Cn4cnc5c(N)ncnc54)c3[nH]2)cc1` [Example 292, N-({7-[(6-amino-9H-purin-9-yl)methyl]-5-chloro-1H-indol-2-yl}methyl)-2-(4-methylphenyl)acetamide]: 32200 nM; `Nc1ncnc2c1ncn2Cc1cc(Cl)cc2cc(CNC(=O)N3CCC(c4ccccc4F)C3)[nH]c12` (stereo not drawn) [Example 319, N-({7-[(6-amino-9H-purin-9-yl)methyl]-5-chloro-1H-indol-2-yl}methyl)-3-(2-fluorophenyl)pyrrolidine-1-carboxamide]: 3390 nM.
For `Nc1ncnc2c1ncn2Cc1cc(Cl)cc2cc(CNC(=O)c3cccc(O)n3)[nH]c12` [Example 197, N-({7-[(6-amino-9H-purin-9-yl)methyl]-5-chloro-1H-indol-2-yl}methyl)-6-hydroxypyridine-2-carboxamide], the half-inhibitory concentration (IC50) was determined as 1070 nM.
Next, `Cn1nnc2cc(C(=O)NCc3cc4cc(Cl)cc(Cn5cnc6c(N)ncnc65)c4[nH]3)ccc21` [Example 352, N-({7-[(6-amino-9H-purin-9-yl)methyl]-5-chloro-1H-indol-2-yl}methyl)-1-methyl-1H-benzotriazole-5-carboxamide]: 1280 nM; `COc1cccc(C)c1C(=O)NCc1cc2cc(Cl)cc(Cn3cnc4c(N)ncnc43)c2[nH]1` [Example 299, N-({7-[(6-amino-9H-purin-9-yl)methyl]-5-chloro-1H-indol-2-yl}methyl)-2-methoxy-6-methylbenzamide]: 1840 nM; `Cc1noc(C)c1C(=O)NCc1cc2cc(-c3cccc(N4CCOCC4)c3)cc(Cn3cnc4c(N)ncnc43)c2[nH]1` [Example 179, N-({7-[(6-amino-9H-purin-9-yl)methyl]-5-[3-(morpholin-4-yl)phenyl]-1H-indol-2-yl}methyl)-3,5-dimethyl-1,2-oxazole-4-carboxamide]: 365 nM.
Next, `Nc1ncnc2c1ncn2Cc1cc(Cl)cc2cc(CNCc3c(F)cccc3F)[nH]c12` [Example 219, 9-[(5-chloro-2-{[(2,6-difluorobenzyl)amino]methyl}-1H-indol-7-yl)methyl]-9H-purin-6-amine]: 3130 nM.
Next, `CCc1ccc(Cn2cnc3c(N)ncnc32)c2[nH]c(CN)cc12` [Example 64, 9-{[2-(aminomethyl)-4-ethyl-1H-indol-7-yl]methyl}-9H-purin-6-amine]: 3080 nM; `CS(=O)(=O)c1ccc(CNCc2cc3cc(Cl)cc(Cn4cnc5c(N)ncnc54)c3[nH]2)cc1F` [Example 264, 9-{[5-chloro-2-({[3-fluoro-4-(methylsulfonyl)benzyl]amino}methyl)-1H-indol-7-yl]methyl}-9H-purin-6-amine]: 3230 nM; `Nc1ncnc2c1ncn2Cc1cc(Cl)cc2cc(CNC(=O)C3CCCCC3)[nH]c12` [Example 128, N-({7-[(6-amino-9H-purin-9-yl)methyl]-5-chloro-1H-indol-2-yl}methyl)cyclohexanecarboxamide]: 3340 nM.
As to `COc1c(C(=O)NCc2cc3cc(Cl)cc(Cn4cnc5c(N)ncnc54)c3[nH]2)cnc2c1c(C)nn2C` [Example 373, N-({7-[(6-amino-9H-purin-9-yl)methyl]-5-chloro-1H-indol-2-yl}methyl)-4-methoxy-1,3-dimethyl-1H-pyrazolo[3,4-b]pyridine-5-carboxamide], the IC50 is 84.4 nM.
With `Cc1noc(C)c1C(=O)NCc1cc2cc(-c3ccc(C#N)cc3)cc(Cn3cnc4c(N)ncnc43)c2[nH]1` [Example 171, N-({7-[(6-amino-9H-purin-9-yl)methyl]-5-(4-cyanophenyl)-1H-indol-2-yl}methyl)-3,5-dimethyl-1,2-oxazole-4-carboxamide] the figure was 173 nM.
`Cc1ccccc1CNCc1cc2cc(Cl)cc(Cn3cnc4c(N)ncnc43)c2[nH]1` [Example 242, 9-[(5-chloro-2-{[(2-methylbenzyl)amino]methyl}-1H-indol-7-yl)methyl]-9H-purin-6-amine]: the IC50 worked out at 2640 nM.
Next, `CCNC(=O)c1cccc(-c2cc(Cn3cnc4c(N)ncnc43)c3[nH]c(CN)cc3c2)c1` [Example 46, 3-{2-(aminomethyl)-7-[(6-amino-9H-purin-9-yl)methyl]-1H-indol-5-yl}-N-ethylbenzamide]: 541 nM.
